# Laboratory results from ChEMBL document CHEMBL1201862, “PubChem BioAssay data set” (2004).
# The source made the active and inactive calls.
# Experiments:
# [1] = biological target: T1, Eukaryotic translation initiation factor 2-alpha kinase 3 (Homo sapiens, UniProt Q9NZJ5); assay: Dose response cell-based high-throughput screening assay to measure PERK inhibition. [Related pubchem assays: 1416 ]; type: functional
# T1 sequence (Q9NZJ5 whole entry): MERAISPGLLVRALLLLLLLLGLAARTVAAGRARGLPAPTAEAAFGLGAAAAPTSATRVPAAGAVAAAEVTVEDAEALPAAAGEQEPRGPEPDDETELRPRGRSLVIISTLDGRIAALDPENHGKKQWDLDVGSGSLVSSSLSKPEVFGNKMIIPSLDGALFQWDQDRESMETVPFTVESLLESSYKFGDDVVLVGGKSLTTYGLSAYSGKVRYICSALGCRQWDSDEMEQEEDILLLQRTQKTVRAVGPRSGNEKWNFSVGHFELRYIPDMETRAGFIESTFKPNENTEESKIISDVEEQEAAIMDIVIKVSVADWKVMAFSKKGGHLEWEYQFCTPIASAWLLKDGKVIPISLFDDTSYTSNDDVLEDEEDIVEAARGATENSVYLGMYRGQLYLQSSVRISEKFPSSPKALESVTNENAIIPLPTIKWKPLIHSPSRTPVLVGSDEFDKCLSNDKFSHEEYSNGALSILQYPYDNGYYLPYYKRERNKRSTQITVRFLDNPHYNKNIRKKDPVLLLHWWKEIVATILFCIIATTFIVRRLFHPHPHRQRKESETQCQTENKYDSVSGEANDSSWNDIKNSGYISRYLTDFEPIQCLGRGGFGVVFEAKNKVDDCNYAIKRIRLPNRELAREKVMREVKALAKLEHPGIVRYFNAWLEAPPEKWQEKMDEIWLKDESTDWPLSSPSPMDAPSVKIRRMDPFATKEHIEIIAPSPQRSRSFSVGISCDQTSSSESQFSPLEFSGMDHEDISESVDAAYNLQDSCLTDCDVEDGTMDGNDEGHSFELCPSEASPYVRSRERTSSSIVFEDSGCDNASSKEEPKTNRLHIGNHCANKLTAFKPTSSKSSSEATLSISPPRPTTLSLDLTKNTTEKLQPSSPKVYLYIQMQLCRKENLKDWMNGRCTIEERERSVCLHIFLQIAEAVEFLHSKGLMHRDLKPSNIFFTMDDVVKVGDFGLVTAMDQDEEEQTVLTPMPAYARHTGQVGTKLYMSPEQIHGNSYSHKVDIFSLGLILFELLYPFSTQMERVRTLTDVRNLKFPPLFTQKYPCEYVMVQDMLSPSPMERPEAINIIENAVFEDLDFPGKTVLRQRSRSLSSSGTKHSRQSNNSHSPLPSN
# [2] = biological target: T1, Eukaryotic translation initiation factor 2-alpha kinase 3; assay: Counterscreen assay for PERK inhibitors: Dose response cell-based high throughput screening assay to measure inhibition of PERK at 6 hours. [Related pubchem assays: 1522, 1416 ]; type: functional
# Caspase-3 = biological target: T2, Caspase-3 (Homo sapiens, UniProt P42574); type: functional;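 also: Dose-response selectivity test against caspase-3 for candidate inhibitors of sentrin-specific proteases (SENPs)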
# T2 sequence (P42574 whole entry): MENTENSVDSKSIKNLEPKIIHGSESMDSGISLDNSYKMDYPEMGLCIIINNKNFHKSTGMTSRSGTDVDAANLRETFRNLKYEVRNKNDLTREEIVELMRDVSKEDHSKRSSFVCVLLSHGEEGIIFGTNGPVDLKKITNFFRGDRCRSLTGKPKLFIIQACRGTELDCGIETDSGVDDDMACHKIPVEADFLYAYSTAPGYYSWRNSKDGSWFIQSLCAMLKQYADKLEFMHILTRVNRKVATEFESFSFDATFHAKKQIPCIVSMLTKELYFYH
# [3] = biological target: T3, Sentrin-specific protease 7 (Homo sapiens, UniProt Q9BQF6); type: functional;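 also: Luminescence-based dose-response confirmation of ultra-high-throughput screening hits, measuring inhibition of SENP7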
# T3 sequence (Q9BQF6 whole entry): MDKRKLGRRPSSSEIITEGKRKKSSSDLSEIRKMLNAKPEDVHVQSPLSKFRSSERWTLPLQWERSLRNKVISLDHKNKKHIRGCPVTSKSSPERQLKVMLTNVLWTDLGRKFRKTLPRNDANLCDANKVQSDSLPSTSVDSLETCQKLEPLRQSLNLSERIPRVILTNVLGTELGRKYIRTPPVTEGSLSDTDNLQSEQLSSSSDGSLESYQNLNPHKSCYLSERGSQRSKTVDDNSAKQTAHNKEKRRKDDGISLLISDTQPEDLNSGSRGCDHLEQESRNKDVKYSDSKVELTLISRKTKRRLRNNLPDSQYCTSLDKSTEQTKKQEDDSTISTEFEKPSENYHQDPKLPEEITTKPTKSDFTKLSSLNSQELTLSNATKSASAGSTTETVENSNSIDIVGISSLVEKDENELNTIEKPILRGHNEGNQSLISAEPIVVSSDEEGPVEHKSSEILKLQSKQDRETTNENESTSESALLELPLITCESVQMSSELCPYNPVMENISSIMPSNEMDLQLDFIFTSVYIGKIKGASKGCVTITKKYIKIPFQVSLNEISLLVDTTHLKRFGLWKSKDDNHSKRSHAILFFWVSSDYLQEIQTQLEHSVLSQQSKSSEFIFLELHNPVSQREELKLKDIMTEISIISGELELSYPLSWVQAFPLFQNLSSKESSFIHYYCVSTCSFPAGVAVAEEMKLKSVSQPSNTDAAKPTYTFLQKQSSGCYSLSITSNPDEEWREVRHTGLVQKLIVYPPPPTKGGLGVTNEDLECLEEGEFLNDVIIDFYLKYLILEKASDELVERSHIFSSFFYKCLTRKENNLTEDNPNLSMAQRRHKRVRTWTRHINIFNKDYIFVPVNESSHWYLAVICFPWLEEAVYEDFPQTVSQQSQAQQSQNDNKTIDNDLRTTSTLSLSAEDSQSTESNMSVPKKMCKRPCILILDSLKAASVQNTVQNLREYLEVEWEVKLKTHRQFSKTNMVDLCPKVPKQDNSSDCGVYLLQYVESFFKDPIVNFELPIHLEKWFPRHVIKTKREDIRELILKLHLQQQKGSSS
# [4] = biological target: T4, Sentrin-specific protease 6 (Homo sapiens, UniProt Q9GZR1); type: functional;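 also: Luminescence-based dose-response confirmatory assay of SENP6 inhibition, following up an ultra-high-throughput screen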
# T4 sequence (Q9GZR1 whole entry): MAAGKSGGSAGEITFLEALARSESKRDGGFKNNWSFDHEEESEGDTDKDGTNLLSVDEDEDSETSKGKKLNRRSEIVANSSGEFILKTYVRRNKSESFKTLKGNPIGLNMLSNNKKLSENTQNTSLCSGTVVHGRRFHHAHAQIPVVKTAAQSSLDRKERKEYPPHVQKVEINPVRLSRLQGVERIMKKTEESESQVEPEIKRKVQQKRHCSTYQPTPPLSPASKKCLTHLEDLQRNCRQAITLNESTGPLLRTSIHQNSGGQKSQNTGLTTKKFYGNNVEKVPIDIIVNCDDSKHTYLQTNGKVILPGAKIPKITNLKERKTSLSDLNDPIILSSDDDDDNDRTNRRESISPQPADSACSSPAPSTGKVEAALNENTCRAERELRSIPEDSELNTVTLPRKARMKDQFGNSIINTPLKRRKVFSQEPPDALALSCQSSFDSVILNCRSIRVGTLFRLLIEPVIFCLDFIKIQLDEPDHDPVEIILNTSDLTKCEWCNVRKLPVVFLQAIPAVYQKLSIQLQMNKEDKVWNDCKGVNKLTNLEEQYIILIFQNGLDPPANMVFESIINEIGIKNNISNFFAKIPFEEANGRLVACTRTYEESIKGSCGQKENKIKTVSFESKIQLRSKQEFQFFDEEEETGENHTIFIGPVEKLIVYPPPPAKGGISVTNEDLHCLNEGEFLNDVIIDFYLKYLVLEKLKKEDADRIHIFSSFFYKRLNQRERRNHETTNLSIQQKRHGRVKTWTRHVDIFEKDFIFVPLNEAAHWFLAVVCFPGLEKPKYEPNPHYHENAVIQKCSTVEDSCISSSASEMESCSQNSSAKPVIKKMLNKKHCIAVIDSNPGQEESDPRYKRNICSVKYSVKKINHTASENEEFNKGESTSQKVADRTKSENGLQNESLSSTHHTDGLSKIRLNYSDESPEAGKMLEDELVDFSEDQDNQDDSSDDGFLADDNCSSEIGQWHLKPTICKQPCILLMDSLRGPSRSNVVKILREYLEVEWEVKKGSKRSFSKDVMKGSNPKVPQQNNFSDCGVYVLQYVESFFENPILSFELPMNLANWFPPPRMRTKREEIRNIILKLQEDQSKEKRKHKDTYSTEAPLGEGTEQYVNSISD
# [5] = biological target: T5, Sentrin-specific protease 8 (Homo sapiens, UniProt Q96LD8); type: functional;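 also: luminescence read-out of SENP8 inhibition, dose-response confirmation following an ultra-high-throughput screen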
# T5 sequence (Q96LD8 whole entry): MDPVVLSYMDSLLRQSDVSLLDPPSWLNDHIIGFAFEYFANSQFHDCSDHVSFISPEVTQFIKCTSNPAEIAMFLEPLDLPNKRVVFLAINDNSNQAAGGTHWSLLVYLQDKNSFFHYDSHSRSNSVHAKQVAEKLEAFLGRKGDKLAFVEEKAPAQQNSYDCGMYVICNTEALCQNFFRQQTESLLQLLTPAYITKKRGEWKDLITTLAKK
# Nonstructural protein 1 = Nonstructural protein 1 (Influenza A virus, UniProt Q194T2); type: functional, Influenza A virus (A/California/07/2009(H1N1))
# [6] = tested on: Streptococcus sp. 'group A'; assay: Streptococcus pyogenes SK(-)GAS viability under kanamycin – luminescence, BacTiterGlo, confirmation, counter-screen for streptokinase expression inhibitor project, dose response (AID 1900); type: functional, organism-based
# Streptokinase A = biological target: T6, Streptokinase A (Streptococcus pyogenes serotype M1, UniProt P10520); assay: viability-normalized secreted streptokinase activity reduction – plasminogen activation absorbance, OD405, dose response (AID 1914); type: functional, Streptococcus pyogenes M1 GAS;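 also: secreted streptokinase activity via plasminogen activation per viability signal from cell pellet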
# T6 sequence (P10520 whole entry): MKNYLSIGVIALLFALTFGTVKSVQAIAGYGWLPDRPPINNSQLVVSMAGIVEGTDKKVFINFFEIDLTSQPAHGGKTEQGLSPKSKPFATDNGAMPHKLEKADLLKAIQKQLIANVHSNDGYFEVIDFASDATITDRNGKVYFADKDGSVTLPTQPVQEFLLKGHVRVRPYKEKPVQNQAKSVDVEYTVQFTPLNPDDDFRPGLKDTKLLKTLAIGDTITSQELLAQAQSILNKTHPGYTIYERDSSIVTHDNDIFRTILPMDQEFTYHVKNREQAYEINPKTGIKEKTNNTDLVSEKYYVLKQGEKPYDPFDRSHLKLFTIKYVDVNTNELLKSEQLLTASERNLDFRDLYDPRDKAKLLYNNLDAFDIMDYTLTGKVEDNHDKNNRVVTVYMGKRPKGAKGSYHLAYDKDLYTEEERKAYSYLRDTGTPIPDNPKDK
# Streptococcus = assay: GAS UMAA2166 growth inhibition – luminescence, BacTiterGlo, counter-screen for streptokinase expression inhibitor project, dose response (AID 1915); type: functional, organism-based;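 also: potency for reduction of bacterial viability or growth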
# [7] = blockers of HIV-1 envelope-mediated cell-cell fusion – cherry-pick, dose response (AID 652057); type: functional, cell-based
# [8] = NIH-3T3 fibroblast cytotoxicity, dose response, cytotoxicity control, cell-based, fluorescence, Alamar Blue, secondary assay (AID 2327); type: functional;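 also: NIH-3T3 mouse fibroblasts cultured with fluconazole at 8 µg/mL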
# [9] = fluconazole-exposed Candida albicans growth modulators – fluorescence, retest, confirmation (AID 2467); type: functional, cell-based
# Nonstructural protein 1, sequence (Q194T2 whole entry): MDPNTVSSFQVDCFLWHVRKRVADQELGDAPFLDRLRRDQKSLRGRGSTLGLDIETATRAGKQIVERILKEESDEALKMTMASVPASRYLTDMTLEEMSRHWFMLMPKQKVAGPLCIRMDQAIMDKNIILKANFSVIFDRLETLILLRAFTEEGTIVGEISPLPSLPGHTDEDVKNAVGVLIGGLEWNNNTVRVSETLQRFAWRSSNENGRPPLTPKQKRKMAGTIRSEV
Structure (SMILES),EC50 [1],EC50 [2],IC50 (Caspase-3),IC50 [3],IC50 [4],IC50 [5],further results
Cn1cc([N+](=O)[O-])c(C(=O)NCc2ccco2)n1,> 55.7 µM (not active),> 55.7 µM (not active),,,,,
Cc1ccc(COc2ccc(/C=N/O)cc2)cc1,,,17.2 µM (active),5.63 µM (active),14.6 µM (active),23.5 µM (active),
Cc1cc(C(=O)N=Nc2c(O)n(C)c3ccccc23)c(C)o1,,,2.71 µM (active),4.99 µM (active),4.84 µM (active),> 100 µM (inactive),
O=C(CN1C(=O)COc2ccc(S(=O)(=O)N3CCOCC3)cc21)NCc1ccccn1,> 55.7 µM (not active),> 55.7 µM (not active),,,,,
CCOc1cc(C2NC(S)=NC(C)=C2C(=O)Nc2ccc(OC)cc2)ccc1O (stereo not given),> 55.7 µM (not active),> 55.7 µM (not active),,,,,
CN(C)c1ccc(N=Nc2cccc3ccoc23)cc1,,,14.8 µM (active),3.81 µM (active),8.07 µM (active),8.97 µM (active),IC50 (Nonstructural protein 1): 39.3 µM (active)
Cc1nnc(O)nc1NCCN(C)C,> 55.7 µM (not active),> 55.7 µM (not active),,,,,
Cc1ccc(-c2cc(-c3cccc(F)c3)[nH]n2)c(O)c1,,,47.2 µM (active),6.27 µM (active),12.2 µM (active),23.8 µM (active),EC50 [6]: 7.23 µM (active); EC50 (Streptokinase A): 21.3 µM (active); EC50 (Streptococcus): > 150 µM (not active)
O=[N+]([O-])c1ccc(C2NS(=O)(=O)N=C3CCCCCN32)cc1 (stereo not given),> 55.7 µM (not active),> 55.7 µM (not active),,,,,
C[C@@H]1CN([C@H](C)CO)C(=O)c2cccc(NS(=O)(=O)c3ccc(F)cc3)c2O[C@@H]1CN(C)Cc1ccc(C(F)(F)F)cc1,,,,,,,AC50 [7]: < 0.26 µM (active)
Oc1nc(Nc2ccccc2)sc1/C=C1\C=Nc2ccccc21,,,70.5 µM (active),6.51 µM (active),> 100 µM (inactive),> 100 µM (inactive),EC50 [8]: 17.9 µM (active); EC50 [6]: 17.3 µM (active); EC50 (Streptokinase A): > 150 µM (not active); EC50 [9]: 1.73 µM (active); EC50 (Streptococcus): 26.6 µM (active)
